Structures are written as SMILES. Numbers after ± are expanded uncertainties.

The conditions of data set [1]: Crystal; DSC.
A short description of data set [2]: Molar enthalpy of transition or fusion. To be noted: Crystal; DSC.

As for `Fc1c(I)c(F)c(I)c(F)c1I` [1,3,5-trifluoro-2,4,6-triiodobenzene], the Triple point temperature in data set [1] came out at 424.01 ± 1 K. In addition, the “Molar enthalpy of transition or fusion” value in data set [2] amounted to 3.23 ± 0.105 kcal/mol.

Source of the values: the NIST ThermoML archive (doi:10.1021/acs.jced.9b00381).
